The test system of test [1] is powdery mildew pathogen, Blumeria graminis f. sp. hordei. The test can be described thus: In vivo control of barley powdery mildew on barley seedlings.
The subject of test [2] is anthracnose pathogen, Colletotrichum orbiculare. It is filed as in vivo.
Test [3] deals with powdery mildew pathogen, Sphaerotheca fidigenea. The test can be described thus: In vivo control of cucumber powdery mildew (natural infestation in greenhouse). The conditions noted are these: for Control value (%) The 1st Exp. cucumber powdery mildew: 1st experiment; for Control value (%) The 2nd Exp. cucumber powdery mildew: 2nd experiment.
Experimental: The culture solution was diluted with distilled water at a ratio of 1:10, 1:25, 1:50, 1:100 and 1:200. Each diluent was mixed with 250 μg/ml of Tween 20, and sprayed to leaves of the 7th leaf stage of cucumbers.
Topseed (Greenbiotech Co., Ltd.) known as a microbial fungicide for controlling powdery mildew was diluted with distilled water at a ratio of 1:10, 1:25, 1:50, 1:100 and 1:200, and each diluent and flusilazole (Dongbu Hannong Chemical Co., Ltd.) as a positive control were sprayed to cucumber plants to prepare a comparative group. The cucumbers treated with Tween 20 solution alone were employed as a control group.
1 week after spraying, each diluent of the culture solution and comparative sample was sprayed to the target cucumbers second time. 1 week after further spraying, effect on controlling powdery mildew was assessed according to the same method as described in Example 3. The cucumbers were allowed to be infested naturally from a resident powdery mildew pathogen, Sphaerotheca fidigenea in a greenhouse.
The subject of test [4] is late blight pathogen, Phytophthora infestans. The class given is in vivo.
In test [5] the test system is gray mold pathogen, Bouytis cinerea. The class given is in vivo.

Where two headings read alike, the source gives them in different places.

With `CCCCNC(=O)n1c(NC(=O)OC)nc2ccccc21` [Benomyl, benomyl], the “Control value (%) Barley powdery mildew” value in test [1] (1 μg/ml) came out at 52%; in test [1] (100 μg/ml), 100%.
In the case of `N#Cc1sc2c(=O)c3ccccc3c(=O)c=2sc1C#N` [Dithianon, dithianon], the results for the “Control value (%) Cucumber anthracnose” value in test [2] (10 μg/ml) and in test [2] (100 μg/ml) were 80% and 100%, respectively.
`C[Si](Cn1cncn1)(c1ccc(F)cc1)c1ccc(F)cc1` [Flusilazole, flusilazole]: the entries for the “Control value (%) The 1st Exp. cucumber powdery mildew” value in test [3] (10 μg/ml) and in test [3] (30 μg/ml) were 97% and 99%, respectively. The “Control value (%) The 2nd Exp. cucumber powdery mildew” value stood at 97% in test [3] (10 μg/ml) and 99% in test [3] (30 μg/ml).
As for `N#Cc1c(Cl)c(Cl)c(Cl)c(C#N)c1Cl` [Chlrothalonil, chlrothalonil], the figures for the “Control value (%) Tomato late blight” value in test [4] (50 μg/ml) and in test [4] (100 μg/ml) were 89% and 100%, respectively.
As for `CN(C)S(=O)(=O)N(SC(F)(Cl)Cl)c1ccccc1` [Dichlofluanid, dichlofluanid], the “Control value (%) Tomato gray mold” value amounted to 86% in test [5] (40 μg/ml) and 97% in test [5] (80 μg/ml).

These data come from US8202514B2, “Bacillus subtilis strain having antagonistic activity for controlling plant diseases” (Korea Research Institute of Chemical Technology, priority 2004, dated 2012).
